In patent US20240150303A1, “DIAMINOTRIAZINE COMPOUNDS” (BASF SE, priority 2021, published 2024):

Legend:
Experiment in all cases: greenhouse pre-emergence herbicidal test
Format in all cases: in vivo
[1] = test system: Alopercurus myosuroides
Excerpt: (§1) The culture containers used were plastic flowerpots containing loamy sand with approximately 3.0% of humus as the substrate. The seeds of the test plants were sown separately for each species.
(§2) For the pre-emergence treatment, the active ingredients, which had been suspended or emulsified in water, were applied directly after sowing by means of finely distributing nozzles.
(§3) The containers were irrigated gently to promote germination and growth and subsequently covered with transparent plastic hoods until the plants had rooted. This cover caused uniform germination of the test plants, unless this had been impaired by the active ingredients.
(§4) Depending on the species, the plants were kept at 10-25° C. or 20-35° C., respectively.
(§5) The test period extended over 2 to 4 weeks. During this time, the plants were tended, and their response to the individual treatments was evaluated.
(§6) Evaluation was carried out using a scale from 0 to 100. 100 means no emergence of the plants, or complete destruction of at least the aerial moieties, and 0 means no damage, or normal course of growth. A moderate herbicidal activity is given at values of at least 60, a good herbicidal activity is given at values of at least 70, and a very good herbicidal activity is given at values of at least 85.
(§7) The plants used in the greenhouse experiments were of the following species: […]

[2] = test system: Abutilon theophrasti
Excerpt: as §1, §2, §3, §4, §5, §6, §7

[3] = test system: Amaranthus retroflexus
Excerpt: (§8) The seeds of the test plants were sown separately for each species. For the pre-emergence treatment, the active ingredients, which had been suspended or emulsified in water, were applied directly after sowing by means of finely distributing nozzles. The containers were irrigated gently to promote germination and growth and subsequently covered with transparent plastic hoods until the plants had rooted. This cover caused uniform germination of the test plants, unless this had been impaired by the active ingredients. […] The test period extended over 2 to 4 weeks. During this time, the plants were tended, and their response to the individual treatments was evaluated. Evaluation was carried out using a scale from 0 to 100. 100 means no emergence of the plants, or complete destruction of at least the aerial moieties, and 0 means no damage, or normal course of growth. A moderate herbicidal activity is given at values of at least 60, a good herbicidal activity is given at values of at least 70, and a very good herbicidal activity is given at values of at least 85. The plants used in the greenhouse experiments were of the following species: [table]

[4] = test system: Setaria faberi
Excerpt: as §8

[5] = test system: Echinocloa crus-galli
Excerpt: as §8

Measured: herbicidal activity

COc1c(F)cc(F)c(C(F)(F)F)c1Nc1nc(N)nc(C(C)(C)F)n1 [Example 19]
100%: [1]; 62 g/ha | [2]; 62.5 g/ha | [3]; 62.5 g/ha | [4]; 62 g/ha | [5]; 62 g/ha | [5]; 62.5 g/ha

COc1c(F)cc(F)c(Cl)c1Nc1nc(N)nc(C(C)(C)F)n1 [Example 9]
100%: [2]; 32 g/ha | [3]; 32 g/ha | [3]; 250 g/ha | [5]; 32 g/ha
90%: [2]; 250 g/ha
95%: [4]; 250 g/ha

COc1c(F)cc(C)c(Cl)c1Nc1nc(N)nc(C(C)(C)F)n1 [Example 55]
100%: [2]; 62 g/ha | [2]; 62.5 g/ha | [3]; 62.5 g/ha | [4]; 62 g/ha | [5]; 62 g/ha | [5]; 62.5 g/ha

CC#CCOc1c(F)ccc(Cl)c1Nc1nc(N)nc(C(C)(C)F)n1 [Example 51]
100%: [2]; 62 g/ha | [3]; 62 g/ha | [4]; 62 g/ha | [5]; 62 g/ha

CC#CCOc1c(Br)cc(F)c(C)c1Nc1nc(N)nc(C(C)(C)F)n1 [Example 21]
95%: [3]; 62.5 g/ha
100%: [1]; 62 g/ha | [4]; 62 g/ha | [4]; 62.5 g/ha | [5]; 62 g/ha | [5]; 62.5 g/ha

COc1c(Cl)cc(F)c(C)c1Nc1nc(N)nc(C(C)(F)CBr)n1 (centres unmarked) [Example 66]
100%: [2]; 62 g/ha | [3]; 62 g/ha | [4]; 62 g/ha | [5]; 62 g/ha

COc1c(F)cc(F)c(Br)c1Nc1nc(N)nc(C(C)(C)F)n1 [Example 13]
100%: [1]; 62.5 g/ha | [2]; 31 g/ha | [3]; 31 g/ha | [4]; 62.5 g/ha | [5]; 31 g/ha | [5]; 62.5 g/ha

COc1c(Cl)cc(Br)c(C)c1Nc1nc(N)nc(C2(F)CCCC2)n1 [Example 61]
75%: [1]; 62 g/ha
100%: [2]; 31 g/ha | [3]; 31 g/ha | [5]; 31 g/ha
70%: [5]; 62 g/ha
85%: [4]; 62 g/ha

CC#CCOc1c(F)cc(Br)c(Cl)c1Nc1nc(N)nc(C(C)(C)F)n1 [Example 59]
95%: [1]; 62 g/ha | [5]; 62.5 g/ha
100%: [2]; 62.5 g/ha | [3]; 62 g/ha | [4]; 62 g/ha | [4]; 62.5 g/ha

COc1c(F)ccc(Cl)c1Nc1nc(N)nc(C2(F)CCCC2)n1 [Example 53]
100%: [2]; 62 g/ha | [3]; 62 g/ha | [4]; 62.5 g/ha | [5]; 62 g/ha
90%: [1]; 62.5 g/ha
98%: [5]; 62.5 g/ha

COc1c(Cl)ccc(Cl)c1Nc1nc(N)nc(C(C)F)n1 (centres unmarked) [Example 71]
100%: [2]; 62 g/ha | [3]; 62 g/ha | [4]; 62 g/ha | [5]; 62 g/ha

CC(F)c1nc(N)nc(Nc2c(Cl)cccc2OC(F)F)n1 (racemic) [Example 95]
100%: [2]; 62 g/ha | [3]; 62 g/ha | [4]; 62 g/ha | [5]; 62 g/ha

COc1c(F)cc(Br)c(Cl)c1Nc1nc(N)nc(C(C)(C)F)n1 [Example 58]
100%: [2]; 62.5 g/ha | [3]; 62 g/ha | [4]; 62 g/ha | [4]; 62.5 g/ha | [5]; 62 g/ha | [5]; 62.5 g/ha

CC#CCOc1c(Br)cc(F)c(Cl)c1Nc1nc(N)nc(C(C)(C)F)n1 [Example 32]
100%: [1]; 62 g/ha | [2]; 62 g/ha | [2]; 62.5 g/ha | [3]; 62.5 g/ha | [4]; 62 g/ha | [5]; 62.5 g/ha

COc1c(Cl)cc(F)c(C)c1Nc1nc(N)nc(C(C)(F)CCl)n1 (centres unmarked) [Example 68]
100%: [2]; 62 g/ha | [3]; 62 g/ha | [4]; 62 g/ha | [5]; 62 g/ha

CC#CCOc1c(F)cc(C)c(Cl)c1Nc1nc(N)nc(C(C)(C)F)n1 [Example 57]
100%: [3]; 62 g/ha | [4]; 31 g/ha | [4]; 62 g/ha | [5]; 31 g/ha | [5]; 62 g/ha
98%: [2]; 31 g/ha

COc1c(Cl)cc(F)c(C)c1Nc1nc(N)nc(C(C)(F)F)n1 [Example 67]
100%: [2]; 62 g/ha | [3]; 62 g/ha | [4]; 62 g/ha | [5]; 62 g/ha

COc1c(Br)cc(F)c(Cl)c1Nc1nc(N)nc(C(C)F)n1 (centres unmarked) [Example 41]
100%: [2]; 62 g/ha | [3]; 62.5 g/ha | [4]; 62 g/ha | [4]; 62.5 g/ha | [5]; 62 g/ha | [5]; 62.5 g/ha

C#CCOc1c(F)ccc(Cl)c1Nc1nc(N)nc(C(C)(C)F)n1 [Example 50]
80%: [2]; 31 g/ha
100%: [2]; 62 g/ha | [3]; 31 g/ha | [3]; 62 g/ha | [4]; 31 g/ha | [5]; 62 g/ha

COc1c(Cl)cc(F)c(C)c1Nc1nc(N)nc(C(C)F)n1 (centres unmarked) [Example 69]
100%: [2]; 62 g/ha | [3]; 62 g/ha | [4]; 62 g/ha | [5]; 62 g/ha

COc1c(Cl)cc(F)c(C)c1Nc1nc(N)nc(C(C)(C)F)n1 [Example 70]
100%: [2]; 62 g/ha | [3]; 62 g/ha | [4]; 62 g/ha | [5]; 62 g/ha

COc1c(Br)cc(Cl)c(C)c1Nc1nc(N)nc(C(C)(F)F)n1 [Example 97]
85%: [3]; 62 g/ha | [4]; 62 g/ha
70%: [1]; 62 g/ha

COc1c(F)cc(C)c(C)c1Nc1nc(N)nc(C(C)(C)F)n1 [Example 54]
100%: [1]; 62.5 g/ha | [2]; 62 g/ha | [2]; 62.5 g/ha | [3]; 62 g/ha | [5]; 62 g/ha | [5]; 62.5 g/ha

COc1c(Br)cc(Cl)c(C)c1Nc1nc(N)nc(C(C)(C)F)n1 [Example 39]
100%: [2]; 62 g/ha | [3]; 62 g/ha | [3]; 62.5 g/ha | [4]; 62 g/ha | [4]; 62.5 g/ha | [5]; 62.5 g/ha

COc1c(Br)ccc(C)c1Nc1nc(N)nc(C(C)(C)F)n1 [Example 62]
100%: [2]; 62 g/ha | [3]; 31 g/ha | [3]; 62 g/ha | [4]; 31 g/ha | [5]; 31 g/ha | [5]; 62 g/ha

COc1c(Br)cc(Cl)c(C)c1Nc1nc(N)nc(C(C)(F)CCl)n1 (racemic) [Example 98]
100%: [1]; 62 g/ha | [3]; 62 g/ha | [4]; 62 g/ha

COc1c(Cl)cc(Cl)c(C)c1Nc1nc(N)nc(C2(F)CC2)n1 [Example 93]
70%: [4]; 62.5 g/ha
80%: [2]; 62.5 g/ha
100%: [3]; 62 g/ha | [3]; 62.5 g/ha | [4]; 62 g/ha | [5]; 62 g/ha

COc1c(Br)cc(F)c(Cl)c1Nc1nc(N)nc(C2(F)CCCC2)n1 [Example 40]
100%: [2]; 62 g/ha | [3]; 62.5 g/ha | [4]; 62 g/ha | [4]; 62.5 g/ha | [5]; 62 g/ha | [5]; 62.5 g/ha
